Publication PMC8445441, “Elucidating the mechanism by which synthetic helper peptides sensitize Pseudomonas aeruginosa to multiple antibiotics” (PLoS Pathogens, 2021)

Columns and labels:
PAO1 in human blood = assay: Antimicrobial activity in blood (ex vivo bacteremia model); assay type: cell-based, Pseudomonas aeruginosa; settings: for duration of control of the infection in blood: human blood infected with PAO1, in the presence of 4 μM D-11; for antibacterial effect in blood (in words): human blood, 5×10^7 CFU/mL PAO1, antibiotic combined with D-11 (4 μM), 4 hours
Description: Human blood of healthy individuals was obtained from Sanquin (certified Dutch organization responsible for meeting the need in healthcare for blood and blood products, https://www.sanquin.nl/) and was infected with 5×10^7 CFU/mL of PAO1. The blood was distributed at 0.5 mL in 2 mL Eppendorf tubes and treated with the antibiotics and peptides at the indicated concentrations at 37 °C for 4 hours. The samples were decimal serially diluted in PBS. Drops of 10 μL of each dilution on LB agar to track the development of infection. The experiment was performed in triplicate.

P. aeruginosa PAO1 = assay: Cutaneous mouse abscess infection model; assay type: in vivo; settings: BALB/c mice, PAO1 2×10^7 CFU; single dose; azithromycin 7.5, chloramphenicol 8, doxycycline 2 mg/kg, each with D-11 10 mg/kg; 20 h post infection
Description: The mouse cutaneous abscess infection model was performed as previously described with minor modifications. 8-week-old specific-pathogen-free female BALB/c mice were used in the experiment. Before infection, 80 μL of 7.5% chloral hydrate were injected intraperitoneally to anaesthetize the mice. PAO1 was grown to an OD600 of 1.0. The bacteria were collected by centrifugation and washed twice with saline. Then the bacteria were resuspended in saline at a concentration of 4 × 10^8 CFU/ml. 50 μL of the bacterial suspension were injected into the right side of the dorsum of the mouse, resulting in 2 × 10^7 CFU per mouse. 30 minutes after the infection, 50 μL saline alone or containing indicated concentration of antibiotic or 10 mg/kg D-11, or a combination of antibiotic and 10 mg/kg D-11 was injected into the infected area. 20 hours post infection, the skin abscess was excised and subjected to homogenization in saline. The live bacteria numbers were determined by plating.

Compound | duration of control of the infection in blood (PAO1 in human blood) | reductions of CFU in the abscess compared to each individual antibiotic (P. aeruginosa PAO1) | antibacterial effect in blood (in words) (PAO1 in human blood)
CC[C@H]1OC(=O)[C@H](C)[C@@H](O[C@H]2C[C@@](C)(OC)[C@@H](O)[C@H](C)O2)[C@H](C)[C@@H](O[C@@H]2O[C@H](C)C[C@H](N(C)C)[C@H]2O)[C@](C)(O)C[C@@H](C)CN(C)[C@H](C)[C@@H](O)[C@]1(C)O [Azithromycin] | more than 24 hours | 2–3 log10 | 
O=C(N[C@H](CO)[C@H](O)c1ccc([N+](=O)[O-])cc1)C(Cl)Cl [Chloramphenicol] | more than 24 hours | 2–3 log10 | best antibacterial effects
CC[C@H]1OC(=O)[C@H](C)[C@@H](O[C@H]2C[C@@](C)(OC)[C@@H](O)[C@H](C)O2)[C@H](C)[C@@H](O[C@@H]2O[C@H](C)C[C@H](N(C)C)[C@H]2O)[C@](C)(OC)C[C@@H](C)C(=O)[C@H](C)[C@@H](O)[C@]1(C)O [Clarithromycin] | more than 24 hours |  | 
CO[C@H]1[C@H](OC(=O)c2ccc(C)[nH]2)[C@H](O)[C@@H](Oc2ccc3c(O)c(NC(=O)c4c[nH]c(C(=O)Nc5c(O)c6ccc(O[C@H]7OC(C)(C)[C@@H](OC)[C@H](OC(=O)c8ccc(C)[nH]8)[C@@H]7O)c(C)c6oc5=O)c4C)c(=O)oc3c2C)OC1(C)C [Coumermycin A1] |  |  | relative week antibacterial effects
C[C@H]1c2cccc(O)c2C(=O)C2=C(O)[C@]3(O)C(=O)C(C(N)=O)=C(O)[C@@H](N(C)C)[C@@H]3[C@@H](O)[C@@H]21 [Doxycycline] | more than 24 hours | 2–3 log10 | best antibacterial effects
CO[C@@H]1[C@@H](OC(N)=O)[C@@H](O)[C@H](Oc2ccc3c(O)c(NC(=O)c4ccc(O)c(CC=C(C)C)c4)c(=O)oc3c2C)OC1(C)C [Novobiocin] |  |  | relative week antibacterial effects
CO[C@H]1/C=C/O[C@@]2(C)Oc3c(C)c(O)c4c(O)c(c(/C=N/N5CCN(C)CC5)c(O)c4c3C2=O)NC(=O)/C(C)=C\C=C\[C@H](C)[C@H](O)[C@@H](C)[C@@H](O)[C@@H](C)[C@H](OC(C)=O)[C@@H]1C [Rifampicin] |  |  | best antibacterial effects
